In patent US20030074686A1, “Novel method for the generation and selection of transgenic linseed/flax plants” (priority 1999, published 2003):
Several values for one entry are separate records, joined by “and”; a condition that tells them apart may be missing. Equal entries are not always repeated.

Key:
[1] = tested on: Ed 45 288 transgenic shoots (JH5 vector); assay: Survival of transgenic shoots on medium with G-418; assay type: in vivo, Linum usitatissimum; details: of four shoots
Source text: (§1) Preferably, testing the two antibiotic system in the transformation experiments is done using kanamycin for the initial selection and G-418 for the second and third rounds of selection (FIG. 1).

[2] = tested on: Flanders 301 transgenic shoots (JH5 vector); assay: Survival of transgenic shoots on medium with G-418; assay type: in vivo, Linum usitatissimum; details: of four shoots
Source text: as §1

[3] = tested on: McGregor 324 transgenic shoots (JH5 vector); assay: Survival of transgenic shoots on medium with G-418; assay type: in vivo, Linum usitatissimum; details: of four shoots
Source text: as §1

[4] = tested on: wild-type flax regenerated shoots; assay: Tolerance of regenerated shoots to G-418; assay type: in vivo; details: tests using regenerated shoots
Source text: as §1

Ed 45 WT shoots = assay: Survival of wild-type shoots on medium with G-418; assay type: in vivo, Linum usitatissimum; details: of four shoots
[5] = tested on: hypocotyl segments used for the Agrobacterium tumefaciens inoculation; assay: Sensitivity of hypocotyl segments to selection antibiotics; assay type: in vivo, flax; details: selective antibiotic for the initial transformation
Source text: as §1

McGregor WT shoots = assay: Survival of wild-type shoots on medium with G-418; assay type: in vivo, Linum usitatissimum; details: of four shoots
Source text: as §1

Flanders WT shoots = assay: Survival of wild-type shoots on medium with G-418; assay type: in vivo, Linum usitatissimum; details: of four shoots
Source text: as §1

CN[C@@H]1[C@@H](O)[C@@H](O[C@@H]2[C@@H](O)[C@H](O[C@H]3O[C@H]([C@@H](C)O)[C@@H](O)[C@H](O)[C@H]3N)[C@@H](N)C[C@H]2N)OC[C@]1(C)O [G-418]
3 and 4: Number of shoots surviving 24 days on medium with G-418 ([1]; G-418 100 mg/l) | Number of shoots surviving 24 days on medium with G-418 ([2]; G-418 30 mg/l) | Number of shoots surviving 24 days on medium with G-418 (Flanders WT shoots; G-418 20 mg/l)
2 and 4: Number of shoots surviving 24 days on medium with G-418 ([2]; G-418 150 mg/l)
no callus was produced: Callus production with the antibiotic as selective agent [5]
0: Number of shoots surviving 24 days on medium with G-418 (Ed 45 WT shoots; G-418 40 mg/l) | Number of shoots surviving 24 days on medium with G-418 (Ed 45 WT shoots; G-418 50 mg/l) | Number of shoots surviving 24 days on medium with G-418 (Ed 45 WT shoots; G-418 70 mg/l) | Number of shoots surviving 24 days on medium with G-418 (Ed 45 WT shoots; G-418 100 mg/l) | Number of shoots surviving 24 days on medium with G-418 (Ed 45 WT shoots; G-418 150 mg/l) | Number of shoots surviving 24 days on medium with G-418 (Ed 45 WT shoots; G-418 200 mg/l) | Number of shoots surviving 24 days on medium with G-418 (McGregor WT shoots; G-418 50 mg/l) | Number of shoots surviving 24 days on medium with G-418 (McGregor WT shoots; G-418 70 mg/l) | Number of shoots surviving 24 days on medium with G-418 (McGregor WT shoots; G-418 100 mg/l) | Number of shoots surviving 24 days on medium with G-418 (McGregor WT shoots; G-418 150 mg/l) | Number of shoots surviving 24 days on medium with G-418 (McGregor WT shoots; G-418 200 mg/l) | Number of shoots surviving 24 days on medium with G-418 (Flanders WT shoots; G-418 50 mg/l) | Number of shoots surviving 24 days on medium with G-418 (Flanders WT shoots; G-418 70 mg/l) | Number of shoots surviving 24 days on medium with G-418 (Flanders WT shoots; G-418 100 mg/l) | Number of shoots surviving 24 days on medium with G-418 (Flanders WT shoots; G-418 150 mg/l) | Number of shoots surviving 24 days on medium with G-418 (Flanders WT shoots; G-418 200 mg/l)
no natural tolerance: Natural tolerance of wild-type flax [4]
4: Number of shoots surviving 24 days on medium with G-418 ([1]; G-418 10 mg/l) | Number of shoots surviving 24 days on medium with G-418 ([1]; G-418 20 mg/l) | Number of shoots surviving 24 days on medium with G-418 ([1]; G-418 30 mg/l) | Number of shoots surviving 24 days on medium with G-418 ([1]; G-418 40 mg/l) | Number of shoots surviving 24 days on medium with G-418 ([1]; G-418 70 mg/l) | Number of shoots surviving 24 days on medium with G-418 ([2]; G-418 10 mg/l) | Number of shoots surviving 24 days on medium with G-418 ([2]; G-418 20 mg/l) | Number of shoots surviving 24 days on medium with G-418 ([2]; G-418 40 mg/l) | Number of shoots surviving 24 days on medium with G-418 ([2]; G-418 50 mg/l) | Number of shoots surviving 24 days on medium with G-418 ([2]; G-418 70 mg/l) | Number of shoots surviving 24 days on medium with G-418 ([3]; G-418 10 mg/l) | Number of shoots surviving 24 days on medium with G-418 ([3]; G-418 20 mg/l) | Number of shoots surviving 24 days on medium with G-418 ([3]; G-418 30 mg/l) | Number of shoots surviving 24 days on medium with G-418 ([3]; G-418 40 mg/l) | Number of shoots surviving 24 days on medium with G-418 ([3]; G-418 50 mg/l) | Number of shoots surviving 24 days on medium with G-418 ([3]; G-418 70 mg/l) | Number of shoots surviving 24 days on medium with G-418 ([3]; G-418 100 mg/l) | Number of shoots surviving 24 days on medium with G-418 (Ed 45 WT shoots; G-418 10 mg/l) | Number of shoots surviving 24 days on medium with G-418 (McGregor WT shoots; G-418 10 mg/l) | Number of shoots surviving 24 days on medium with G-418 (Flanders WT shoots; G-418 10 mg/l)
4 and 3: Number of shoots surviving 24 days on medium with G-418 ([1]; G-418 50 mg/l) | Number of shoots surviving 24 days on medium with G-418 ([2]; G-418 100 mg/l) | Number of shoots surviving 24 days on medium with G-418 ([3]; G-418 150 mg/l) | Number of shoots surviving 24 days on medium with G-418 (McGregor WT shoots; G-418 20 mg/l)
1 and 2: Number of shoots surviving 24 days on medium with G-418 ([2]; G-418 200 mg/l) | Number of shoots surviving 24 days on medium with G-418 (Ed 45 WT shoots; G-418 20 mg/l) | Number of shoots surviving 24 days on medium with G-418 (Ed 45 WT shoots; G-418 30 mg/l)
2: Number of shoots surviving 24 days on medium with G-418 (McGregor WT shoots; G-418 30 mg/l)
